Measured values as given in patent publication US12201628B2, “Neuronal modulation” (priority 2013, dated 2025).

How the values were obtained:
[1] = test system: immune cell clusters (CD45+ cells); experiment: CyTOF mass cytometry of blood and spleen with Citrus analysis; assay type: in vivo, mice; settings: 6-OHDA 150 mg/kg twice IP (SNS ablated); splenocytes 24 h after VTA activation
Method: Two weeks after completion of the behavioral testing, mice were injected intraperitoneally with CNO and anesthetized 24 hours thereafter. Spleens and blood samples were collected. Spleens were dissociated into single-cell suspensions in 2% fetal bovine serum (Biological Industries, IL) and mesh filtered to remove clumps and debris. Blood samples were collected into heparin-coated sterile test tubes. Both the blood and the spleen cell suspensions were lysed with red blood cell lysis buffer (BD Biosciences, NJ, US). Cells ([…]) from each tissue were stained, for 1 hour at room temperature, with a mixture of metal tagged antibodies recognizing CD45, CCR3, CD80, GR1, CD86, CD19, CD4, CD45R, CD152, CD138, CD8, NK1.1, CD27, CD206, CD25, CD14, CD11c, CD49b, CD34, CD69, CD123, TCRβ, CCR7, CD28, CD115, CD133, TLR4, CD117, CD79b, CD62L, CD44, CD45RA, CD1d, IAIE, CD5, and CD11b. All antibodies were conjugated using the MAXPAR reagent (Fluidigm Inc.), with Rhodium and Iridium intercalators used to identify live/dead cells. Cells were washed twice with PBS, fixed in 1.6% formaldehyde (Sigma-Aldrich, St. Louis, MO) for 1 hour, washed again in ultrapure H2O and subjected to CyTOF mass cytometry analysis on a CyTOF I machine, with cell events acquired at approximately 500 events per second. In addition, each sample was spiked with internal metal isotope bead standards, which then was used for sample normalization by CyTOF software (Fluidigm). Acquired data was then uploaded to a Cytobank web server (Cytobank Inc.) for data processing and gating out of dead cells and normalization beads. Data was transformed using an arc sin h (X/5) transformation.
Differences in cell subset abundance and functional marker expression between VTA activated and control mice, were identified using the Citrus algorithm, a clustering and differential detection algorithm especially suited for high dimensional cytometry data (2). Twenty FCS files of normalized, live cell/no beads samples (Five VTA activated mice spleens, five VTA activated mice blood samples, 5 control mice spleen and five control mice blood) were each randomly sampled for 40,000 single cell events each. Briefly, Citrus performs three steps to identify cell subsets and differences between groups: First, collected single cell events are pooled together and iteratively hierarchically clustered using a subset of the measured channels for clustering (See Table 1 for a list of 23 clustering markers), yielding overlapping clusters with the ultimate cluster being one encompassing all sampled events. Second, the pooled dataset is split back into its constituting samples and the relative abundance of cells in each cluster is computed, as well as the median values of each functional marker (see Table 1 for a list of functional markers). Only cell clusters whose total abundance in one or more of the measured samples was greater than 1% of the total measured sample was retained for downstream analysis, yielding a total of 151 clusters. Third, the Citrus implementation of the SAM algorithm was applied, to identify, separately, differences in cell subset abundances and medians between VTA activated and control mouse samples at a predetermined FDR of 5%. Beyond this, an additional criteria for calling differences was employed, by performing a Mann-Whitney non-parametric test of significance on each cluster found to be different between VTA activated and control and requiring that it meet a p-value <0.05 criteria. Manual inspection of Citrus output was used to identify the closest known gross-cell type, matching the 23 combination clustering marker panel. A similar procedure analysis procedure was performed for 6-OHDA samples versus control. […]

[2] = IP injected; cited from earlier work

Compound: NCCc1cc(O)c(O)cc1O [6 OHDA, 6-hydroxydopamine]
- differences in immune system (CD45+ cells) between VTA-activated and control mice [1]: no significant differences were detected
- crossing of the blood brain barrier [2]: does not cross the blood brain barrier
